The source made the active and inactive calls. For most assays here, no stated cut-off is given here; in the data, actives have a measured EC50 and inactives only a lower limit.
Key:
[1] = inhibitors of firefly luciferase expression or activity, dose response, H4 neuroglioma cells, luminescence (AID 1990); assay type: functional, cell-based
BJ [2] = test: cytotoxicity toward Ras-transformed BJeLR fibroblasts, dose response, cell-based, alamar blue fluorescence, cherrypicked samples (AID 2631); assay type: functional; details: Homo sapiens;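 further: confirmatory dose-response assay in RAS-dependent BJ fibroblasts engineered with TERT, LT and ST, with cytotoxicity read by fluorescence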
BJ [3] = test: cytotoxicity toward BJ-TERT fibroblasts, dose response, cell-based, RAS-independent, luminescence (AID 1933); assay type: functional; details: Homo sapiens
BJ [4] = test: cytotoxicity toward BJ-TERT-LT-ST fibroblasts, dose response, cell-based, RAS-independent, luminescence (AID 1935); assay type: functional; details: Homo sapiens;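 further: BJ fibroblasts immortalized with TERT plus LT and ST oncogenes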
[5] = cytotoxicity toward DRD oncogenic fibroblasts, dose response, cell-based, non-viral oncogenic, luminescence (AID 1934); assay type: functional; details: Homo sapiens
[6] = Luminescence Cell-Based Dose Response HTS to Identify Inhibitors of 5'UTR Stem-Loop Driven Prion Protein mRNA Translation in H4 Neuroglioblastoma Cells. [Related pubchem assays: 1827 (Project Summary), 1813 (Primary HTS)]; assay type: functional
[7] = inhibitors of SNCA 5'UTR-driven reporter translation, confirmation, H4 neuroglioma cells, luminescence (AID 1988); assay type: functional, cell-based
BJ [8] = test: cells; assay type: functional, cell-based; details: Homo sapiens
[9] = system: Streptococcus sp. 'group A'; test: growth inhibition of control SK(-) GAS strain, dose response, counter-screen for streptokinase expression inhibitor project, luminescence, kanamycin, BacTiterGlo, confirmation (AID 1900); assay type: functional, organism-based
Streptokinase A = molecular target: T1, Streptokinase A (Streptococcus pyogenes serotype M1, UniProt P10520); test: S. pyogenes streptokinase expression inhibitors, potency, dose response, plasminogen activation absorbance, OD405 (AID 1914); assay type: functional, Streptococcus pyogenes M1 GAS;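 further: secreted streptokinase activity via plasminogen activation per viability signal from cell pellet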
T1 sequence (P10520 whole entry): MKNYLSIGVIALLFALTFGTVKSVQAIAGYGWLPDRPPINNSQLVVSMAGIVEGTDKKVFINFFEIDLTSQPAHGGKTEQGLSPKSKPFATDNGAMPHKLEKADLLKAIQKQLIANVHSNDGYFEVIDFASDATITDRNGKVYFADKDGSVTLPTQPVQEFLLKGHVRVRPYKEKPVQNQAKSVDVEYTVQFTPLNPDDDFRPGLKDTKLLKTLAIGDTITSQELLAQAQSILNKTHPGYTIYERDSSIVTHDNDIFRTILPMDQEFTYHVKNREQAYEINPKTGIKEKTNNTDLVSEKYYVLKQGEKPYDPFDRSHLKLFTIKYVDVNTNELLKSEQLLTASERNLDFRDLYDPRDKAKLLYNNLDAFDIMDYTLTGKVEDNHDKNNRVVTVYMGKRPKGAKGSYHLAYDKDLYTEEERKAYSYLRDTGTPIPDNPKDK

[10] = molecular target: DNA (cytosine-5)-methyltransferase 1 (Homo sapiens, UniProt P26358); test: DNMT1 methyltransferase inhibitors, confirmation, biochemical, fluorescent molecular beacon (AID 602386); assay type: functional
Chain of DNA (cytosine-5)-methyltransferase 1 (P26358 whole entry, the tested form may be a part): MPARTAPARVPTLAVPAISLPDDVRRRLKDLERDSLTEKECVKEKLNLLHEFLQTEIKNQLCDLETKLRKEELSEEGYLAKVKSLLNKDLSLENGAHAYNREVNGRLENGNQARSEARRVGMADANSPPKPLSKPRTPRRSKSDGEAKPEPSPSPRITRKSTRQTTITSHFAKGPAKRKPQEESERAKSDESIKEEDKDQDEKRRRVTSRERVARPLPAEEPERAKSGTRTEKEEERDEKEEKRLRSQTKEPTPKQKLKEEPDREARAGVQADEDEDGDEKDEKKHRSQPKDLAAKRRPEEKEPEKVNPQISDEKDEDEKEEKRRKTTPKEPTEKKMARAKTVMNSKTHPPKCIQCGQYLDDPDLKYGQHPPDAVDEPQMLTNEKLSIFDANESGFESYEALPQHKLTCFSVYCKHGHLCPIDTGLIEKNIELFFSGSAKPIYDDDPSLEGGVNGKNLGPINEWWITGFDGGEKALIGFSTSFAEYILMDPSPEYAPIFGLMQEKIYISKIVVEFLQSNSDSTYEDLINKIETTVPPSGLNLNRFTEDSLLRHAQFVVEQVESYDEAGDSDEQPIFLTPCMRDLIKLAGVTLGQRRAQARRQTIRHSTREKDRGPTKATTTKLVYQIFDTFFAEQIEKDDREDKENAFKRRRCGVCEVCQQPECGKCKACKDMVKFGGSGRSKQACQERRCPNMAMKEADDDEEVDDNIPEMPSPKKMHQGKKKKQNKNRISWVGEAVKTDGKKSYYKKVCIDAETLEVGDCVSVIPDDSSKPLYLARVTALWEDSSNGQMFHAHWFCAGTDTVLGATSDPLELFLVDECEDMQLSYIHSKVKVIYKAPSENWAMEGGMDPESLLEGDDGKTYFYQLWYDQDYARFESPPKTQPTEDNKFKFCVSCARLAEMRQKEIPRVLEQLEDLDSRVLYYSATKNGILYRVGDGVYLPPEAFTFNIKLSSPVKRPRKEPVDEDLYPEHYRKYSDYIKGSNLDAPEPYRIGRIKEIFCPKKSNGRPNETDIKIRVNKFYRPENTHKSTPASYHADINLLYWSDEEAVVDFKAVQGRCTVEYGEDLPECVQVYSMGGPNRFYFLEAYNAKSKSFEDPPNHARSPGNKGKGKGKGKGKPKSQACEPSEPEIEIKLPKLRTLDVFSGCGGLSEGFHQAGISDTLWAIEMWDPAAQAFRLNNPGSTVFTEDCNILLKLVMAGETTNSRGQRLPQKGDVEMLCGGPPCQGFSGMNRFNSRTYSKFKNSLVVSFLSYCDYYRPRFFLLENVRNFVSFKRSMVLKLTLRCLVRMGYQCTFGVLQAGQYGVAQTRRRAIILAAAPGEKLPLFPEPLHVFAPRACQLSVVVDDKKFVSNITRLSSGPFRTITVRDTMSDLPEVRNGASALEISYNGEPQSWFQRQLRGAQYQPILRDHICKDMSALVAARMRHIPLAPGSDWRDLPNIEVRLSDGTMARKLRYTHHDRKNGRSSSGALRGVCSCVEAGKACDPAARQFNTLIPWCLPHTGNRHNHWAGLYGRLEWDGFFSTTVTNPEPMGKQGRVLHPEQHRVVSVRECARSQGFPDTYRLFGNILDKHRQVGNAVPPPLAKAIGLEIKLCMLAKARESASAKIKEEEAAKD

[11] = molecular target: T2, Carboxy-terminal domain RNA polymerase II polypeptide A small phosphatase 1 (Homo sapiens, UniProt Q9GZU7); test: inhibitors of CTDSP1, concentration-response testing, biochemical assay, absorbance-based, actives from ultra-high-throughput screening (AID 540297); assay type: functional
T2 sequence (Q9GZU7 whole entry): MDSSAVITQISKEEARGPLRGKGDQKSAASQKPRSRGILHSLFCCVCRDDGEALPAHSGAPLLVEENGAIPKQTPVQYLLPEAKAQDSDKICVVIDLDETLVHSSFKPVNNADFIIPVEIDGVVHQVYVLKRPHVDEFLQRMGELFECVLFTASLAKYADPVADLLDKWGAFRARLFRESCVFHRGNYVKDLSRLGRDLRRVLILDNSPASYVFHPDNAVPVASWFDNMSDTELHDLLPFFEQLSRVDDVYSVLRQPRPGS

Streptococcus = test: Group A Streptococcus viability loss, dose response, counter-screen for streptokinase expression inhibitor project, luminescence, BacTiterGlo (AID 1915); assay type: functional, organism-based;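 further: potency for reduction of bacterial viability or growth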
[12] = molecular target: Beta-2 adrenergic receptor (Homo sapiens, UniProt P07550); test: beta2AR agonists driving receptor internalization, dose response, cell-based, FAP fluorogen, flow cytometry, cherry pick 1 (AID 588763); assay type: functional
Chain of Beta-2 adrenergic receptor (P07550 whole entry): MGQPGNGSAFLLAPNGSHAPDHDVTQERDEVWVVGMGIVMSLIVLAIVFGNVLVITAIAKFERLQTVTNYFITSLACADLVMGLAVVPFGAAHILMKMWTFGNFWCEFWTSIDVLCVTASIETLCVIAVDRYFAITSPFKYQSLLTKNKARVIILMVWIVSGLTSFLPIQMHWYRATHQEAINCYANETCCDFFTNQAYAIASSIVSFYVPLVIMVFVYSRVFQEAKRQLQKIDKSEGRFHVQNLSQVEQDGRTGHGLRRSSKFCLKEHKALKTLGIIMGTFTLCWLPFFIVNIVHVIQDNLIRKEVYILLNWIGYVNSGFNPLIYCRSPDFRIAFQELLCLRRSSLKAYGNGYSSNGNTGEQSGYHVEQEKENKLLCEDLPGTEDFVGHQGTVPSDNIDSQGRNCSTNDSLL

[13] = inhibitors of intracellular T. cruzi replication, confirmation, NIH3T3 host cells, beta-gal luminescence (AID 2044); assay type: functional, cell-based;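 further: intracellular parasites grown in NIH/3T3 mouse fibroblasts as host cells; luminescent beta-galactosidase reporter signal from transgenic T. cruzi replicating inside host cells; inhibitors lower the luminescence signal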
[14] = cytotoxicity toward NIH3T3 fibroblasts, dose response, counter-screen, cell-based, ATP luminescence, mouse fibroblasts (AID 2010); assay type: functional;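 further: cells exposed to compound for about 90 hours before reading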
[15] = molecular target: Protein disulfide-isomerase (Homo sapiens, UniProt P07237); test: PDI inhibitors, insulin aggregation turbidity, dose response, biochemical, absorbance, cherry-picked samples (AID 602350); assay type: functional
Chain of Protein disulfide-isomerase (P07237 whole entry): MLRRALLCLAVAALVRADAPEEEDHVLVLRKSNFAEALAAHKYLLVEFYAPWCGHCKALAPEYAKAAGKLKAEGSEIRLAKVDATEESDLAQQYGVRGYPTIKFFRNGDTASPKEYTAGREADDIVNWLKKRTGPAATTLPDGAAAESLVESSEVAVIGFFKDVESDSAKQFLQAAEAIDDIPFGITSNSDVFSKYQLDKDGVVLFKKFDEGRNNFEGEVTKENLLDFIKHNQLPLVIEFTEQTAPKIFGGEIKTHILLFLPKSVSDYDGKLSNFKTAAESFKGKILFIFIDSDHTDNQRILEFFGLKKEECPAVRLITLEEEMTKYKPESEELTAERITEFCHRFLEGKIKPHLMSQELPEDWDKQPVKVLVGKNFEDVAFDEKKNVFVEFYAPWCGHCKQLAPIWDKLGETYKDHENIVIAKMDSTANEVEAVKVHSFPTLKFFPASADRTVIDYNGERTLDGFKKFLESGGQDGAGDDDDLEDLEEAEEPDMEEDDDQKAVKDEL

[16] = molecular target: T3, Heat shock factor protein 1 (Mus musculus, UniProt P38532); test: HSF1 potentiators in luciferase reporter cells, confirmation, cell-based, NIH3T3, luminescence, dose retest (AID 435004); assay type: functional;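 further: stress induced by proteasome inhibitor MG132 added 30 min after compound; luciferase reporter driven by HSF1 response element in NIH3T3 cells; actives raise luminescence as potentiators of the MG132 stress response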
T3 sequence (P38532 whole entry): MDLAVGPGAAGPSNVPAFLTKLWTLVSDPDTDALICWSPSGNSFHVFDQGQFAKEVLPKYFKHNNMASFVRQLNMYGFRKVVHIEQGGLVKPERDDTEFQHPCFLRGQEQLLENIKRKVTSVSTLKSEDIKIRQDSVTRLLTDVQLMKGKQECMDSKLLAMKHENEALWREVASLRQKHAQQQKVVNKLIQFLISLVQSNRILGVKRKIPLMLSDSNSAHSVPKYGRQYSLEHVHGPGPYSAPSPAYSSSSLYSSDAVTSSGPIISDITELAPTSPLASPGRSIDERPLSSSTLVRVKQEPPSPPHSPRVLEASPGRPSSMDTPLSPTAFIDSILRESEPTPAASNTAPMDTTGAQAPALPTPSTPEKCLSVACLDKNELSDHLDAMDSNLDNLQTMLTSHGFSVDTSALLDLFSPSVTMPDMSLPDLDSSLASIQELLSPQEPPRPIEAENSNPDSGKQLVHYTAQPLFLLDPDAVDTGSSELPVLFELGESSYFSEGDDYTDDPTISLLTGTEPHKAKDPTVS

[17] = molecular target: T4, Corticotropin-releasing factor receptor 2/Corticotropin-releasing factor-binding protein (Homo sapiens, UniProt P24387+Q13324); test: activators of CRF receptor 2 with binding protein – uHTS hits, confirmation (AID 602473); assay type: functional; details: read-out: EC50_Mean
T4 sequence (Q13324 whole entry): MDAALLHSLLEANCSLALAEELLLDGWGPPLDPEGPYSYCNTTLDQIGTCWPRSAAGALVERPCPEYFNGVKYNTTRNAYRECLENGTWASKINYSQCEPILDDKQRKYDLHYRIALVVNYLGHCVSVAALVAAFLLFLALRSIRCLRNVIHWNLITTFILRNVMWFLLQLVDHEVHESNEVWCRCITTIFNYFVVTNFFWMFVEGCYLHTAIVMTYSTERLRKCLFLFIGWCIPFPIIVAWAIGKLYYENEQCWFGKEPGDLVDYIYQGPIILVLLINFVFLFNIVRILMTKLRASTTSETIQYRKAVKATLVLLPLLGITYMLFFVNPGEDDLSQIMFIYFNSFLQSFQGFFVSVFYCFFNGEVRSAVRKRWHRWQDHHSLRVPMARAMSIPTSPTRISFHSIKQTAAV
T4 sequence (P24387 whole entry): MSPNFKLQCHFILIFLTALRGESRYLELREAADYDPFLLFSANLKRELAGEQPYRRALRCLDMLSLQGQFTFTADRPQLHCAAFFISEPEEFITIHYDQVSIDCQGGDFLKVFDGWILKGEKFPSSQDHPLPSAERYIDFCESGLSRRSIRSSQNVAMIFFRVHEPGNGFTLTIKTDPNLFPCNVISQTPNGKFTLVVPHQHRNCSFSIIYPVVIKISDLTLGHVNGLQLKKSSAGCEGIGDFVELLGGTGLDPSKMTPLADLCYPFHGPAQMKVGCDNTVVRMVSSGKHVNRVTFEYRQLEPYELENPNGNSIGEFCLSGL

COc1cccc(CSc2nc3ccccc3cc2C=O)c1
EC50 [1]: 16.6 µM (active)
EC50 (BJ [2]): 0.301 µM (active)
EC50 (BJ [3]): 0.944 µM (inconclusive)
EC50 (BJ [4]): 1.17 µM (active)
EC50 [5]: 1.27 µM (active)
EC50 [6]: 17.7 µM (active)
EC50 [7]: 13.7 µM (active)
EC50 (BJ [8]): 21.6 µM (active)

CC(=O)OCC1=C(C(=O)O)N2C(=O)C(NC(=O)c3ccc(COc4cccc(Cl)c4Cl)o3)C2SC1 (stereo not given)
EC50 [9]: 5.04 µM (active)
EC50 (Streptokinase A): 12.6 µM (active)
IC50 [10]: 8.67 µM (active)
IC50 [11]: 5.07 µM (active)
EC50 (Streptococcus): 8.94 µM (active)

CCN(c1ccc2c(c1)OCO2)S(=O)(=O)c1cc(Br)cc2c1N(C(C)=O)CC2
EC50 [12]: 10.5 µM (inactive)
EC50 [13]: 0.891 µM (active)
EC50 [14]: > 60 µM (not active)

CCC(C)C(=O)OCC1(c2ccc(C)cc2OC(=O)C(C)C)CO1 (stereo not given)
EC50 (BJ [2]): 8.58 µM (active)

Cc1c(-n2cc(C(=O)c3ccccc3O)cc(C#N)c2=O)c(=O)n(-c2ccccc2)n1C
AC50 [15]: 5.89 µM (active)
EC50 [16]: > 260 µM (inactive)
EC50 [17]: 8.01 µM (active)
